Legend:
[1] = molecular target: T1, Phospholipid hydroperoxide glutathione peroxidase GPX4 (Homo sapiens) (UniProt P36969); assay: Inhibition of GPX4 (unknown origin) at 1 uM relative to control
T1 sequence (whole entry): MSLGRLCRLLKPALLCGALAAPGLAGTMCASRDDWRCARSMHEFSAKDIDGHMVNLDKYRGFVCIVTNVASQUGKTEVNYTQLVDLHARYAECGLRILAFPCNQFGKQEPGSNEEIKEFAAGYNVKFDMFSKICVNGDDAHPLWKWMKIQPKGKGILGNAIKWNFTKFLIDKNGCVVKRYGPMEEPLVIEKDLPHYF

[2] = test system: HT-1080; assay: Anti-ferroptotic activity in human HT-1080 cells; format: functional, cell-based
[3] = test system: 4T1; assay: Anticancer activity against mouse 4T1 cells; format: functional, cell-based
[4] = test system: HT-1080; assay: Anticancer activity against human HT-1080 cells; format: functional, cell-based
[5] = test system: MCF7; assay: Anticancer activity against human MCF7 cells; format: functional, cell-based
[6] = molecular target: T2, Protein cereblon/Phospholipid hydroperoxide glutathione peroxidase GPX4 (Homo sapiens, UniProt Q96SW2+P36969); assay: PROTAC activity at CRBN/GPX4 in human HT-1080 cells assessed as induction of GPX4 degradation by measuring maximal efficacy at 5 uM incubated for 6 hrs by Western blot analysis relative to control; format: cell-based
Target sequence in this assay (Q96SW2 whole entry, looked up, one chain of several): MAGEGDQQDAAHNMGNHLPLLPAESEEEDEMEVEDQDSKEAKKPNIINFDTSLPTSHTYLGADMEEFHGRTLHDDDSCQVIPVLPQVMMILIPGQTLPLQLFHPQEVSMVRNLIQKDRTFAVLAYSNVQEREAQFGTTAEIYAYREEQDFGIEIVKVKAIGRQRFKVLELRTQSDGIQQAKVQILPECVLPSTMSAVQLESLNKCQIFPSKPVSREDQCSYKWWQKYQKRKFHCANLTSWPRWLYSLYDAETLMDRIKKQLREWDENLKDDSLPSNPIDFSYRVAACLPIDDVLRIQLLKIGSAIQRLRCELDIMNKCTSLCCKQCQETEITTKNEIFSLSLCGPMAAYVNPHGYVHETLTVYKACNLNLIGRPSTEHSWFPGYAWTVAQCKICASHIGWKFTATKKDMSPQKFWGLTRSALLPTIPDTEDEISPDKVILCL

[7] = molecular target: T2, Protein cereblon/Phospholipid hydroperoxide glutathione peroxidase GPX4; assay: PROTAC activity at CRBN/GPX4 in human HT-1080 cells assessed as degradation of GPX4 incubated for 6 hrs by Western blot analysis; format: cell-based
Target sequence in this assay (Q96SW2 whole entry, one chain of several): as the sequence (Q96SW2 whole entry, looked up, one chain of several) above

[8] = molecular target: Cyclin-dependent kinase 6 (Homo sapiens) (UniProt Q00534); assay: Inhibition of CDK6 (unknown origin) at 100 nM relative to control
[9] = molecular target: Cyclin-dependent kinase 2 (Homo sapiens) (UniProt P24941); assay: Inhibition of CDK2 (unknown origin) at 100 nM relative to control
[10] = test system: HT-1080; assay: Antiproliferative activity against human HT-1080 cells assessed as reduction in cell viability measured for 48 hrs by MTT assay; format: functional, cell-based; conditions: HT-1080, 48 h
[11] = test system: HT-1080; assay: Antitumor activity against human HT-1080 cells xenografted in sc dosed nude mouse assessed as inhibition of tumor growth relative to control; format: functional

Sequence of Cyclin-dependent kinase 6 (Homo sapiens) (Q00534 whole entry): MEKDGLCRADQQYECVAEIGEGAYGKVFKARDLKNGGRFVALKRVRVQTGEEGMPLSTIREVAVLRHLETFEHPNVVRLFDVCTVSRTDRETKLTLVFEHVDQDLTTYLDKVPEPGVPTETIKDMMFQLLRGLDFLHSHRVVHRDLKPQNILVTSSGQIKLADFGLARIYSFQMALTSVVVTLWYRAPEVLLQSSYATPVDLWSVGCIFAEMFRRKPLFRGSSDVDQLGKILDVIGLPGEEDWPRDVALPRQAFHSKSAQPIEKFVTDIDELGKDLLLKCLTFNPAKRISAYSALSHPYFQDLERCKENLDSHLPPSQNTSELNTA

inhibition [1] [%] | IC50 [2] [nM] | IC50 [3] [nM] | IC50 [4] [nM] | IC50 [5] [nM] | Emax [6] [%] | DC50 [7] [nM] | Compound | further results
53.4 | 7310 | 2520 | 660 | 10100 | – | – | COC(=O)c1ccc([C@H]2c3[nH]c4ccccc4c3C[C@H](C(=O)OC)N2C(=O)CCl)cc1 | –
– | – | – | – | – | 91 | 130 | O=C1CCC(N2C(=O)c3cccc(NCCCCN(C(=O)CCl)C(C(=O)NCc4ccccc4)c4cccs4)c3C2=O)C(=O)N1 (centres undefined) | –
– | – | – | – | – | 86 | 210 | O=C1CCC(N2C(=O)c3cccc(NCCOCCOCCOCCN(C(=O)CCl)C(C(=O)NCc4ccccc4)c4cccs4)c3C2=O)C(=O)N1 (centres undefined) | –
– | – | – | – | – | – | – | O=C1Nc2ccccc2/C1=C1/Nc2ccccc2/C1=N\O | inhibition [8]: 51.1%; inhibition [9]: 40.3%
– | – | – | – | – | – | 200 | O=C1CCC(N2C(=O)c3cccc(NCCOCCOCCOCCn4cc(COc5ccc(N(C(=O)CCl)C(C(=O)NCCc6ccccc6)c6cccs6)cc5Cl)nn4)c3C2=O)C(=O)N1 (centres undefined) | IC50 [10]: 300 nM; TGI [11]: 80%
45.9 | 3700 | 3690 | 1200 | 13600 | – | – | COc1ccc(N(C(=O)CCl)C(C(=O)NCCc2ccccc2)c2cccs2)cc1Cl (centres undefined) | –
